According to patent publication US20200010482A1, “INHIBITORS OF BETA SECRETASE” (Janssen Pharmaceutica NV, priority 2017, published 2020):

System: brain levels of soluble Aβ42, Aβ40, Aβ38, and Aβ37
Assay: In vivo Aβ lowering, brain levels of soluble Aβ by MSD electrochemiluminescence
Parameters: species or system mouse
Settings: 10 mg/kg s.c., 4 h after administration; untreated animals as control set at 100
Description: To determine whether acute administration of an Aβ lowering agent would reduce Aβ levels in vivo, non-transgenic rodents, e.g. mice or rats were used. Animals treated with the Aβ lowering agent were examined and compared to those untreated or treated with vehicle and brain levels of soluble Aβ42, Aβ40, Aβ38, and Aβ37 were quantitated by Meso Scale Discovery's (MSD) electrochemiluminescence detection technology. Treatment periods varied from hours (h) to days and were adjusted based on the results of the Aβ lowering once a time course of onset of effect could be established.
A typical protocol for measuring Aβ lowering in vivo is shown but it is only one of many variations that could be used to optimize the levels of detectable Aβ. […] After 4 h, the animals were sacrificed and Aβ levels were analysed.
Blood was collected by decapitation and exsanguinations in EDTA-treated collection tubes. […] The left hemisphere was stored at −18° C. for quantitative analysis of test compound levels. […]
Mouse brains from non-transgenic animals were resuspended in 8 volumes of 0.4% DEA (diethylamine)/50 mM NaCl containing protease inhibitors (Roche-11873580001 or 04693159001) per gram of tissue, e.g. for 0.158 g brain, add 1.264 ml of 0.4% DEA. […] Nine parts of supernatant were neutralized with 1 part 0.5 M Tris-HCl pH 6.8 and used to quantify Aβ. […]

How did the “Aβ40 (% vs Ctrl)_Mean” value turn out when `COc1ncc(C#N)c2c1C[C@]1(c3ccccc3F)N=C(N)SC[C@@H]1C2` (racemic) [Compound 22] was run?
Its value is 39 % vs Ctrl.

And the “Aβ42 (% vs Ctrl)_Mean” value?
Its value is 32 % vs Ctrl.
